Measured values reported in ChEMBL document CHEMBL4017471, “Discovery of novel aminobenzisoxazole derivatives as orally available factor IXa inhibitors” (Bioorg Med Chem Lett, 2017).
Calls of active or inactive are those of the source. The calls are words filed in the database; no cut-off is given here.

How the values were obtained:
Coagulation factor X = Coagulation factor X (Homo sapiens, UniProt P00742)
Description: Inhibition of human coagulation factor 10a

Coagulation factor IX = Coagulation factor IX (Homo sapiens, UniProt P00740)
[1] = Apparent permeability of the compound at 5 uM after 5 hrs by PAMPA; type: physicochemical
Plasma = experiment: Anticoagulant activity in human plasma assessed as concentration required to double activated partial thromboplastin time; type: functional
[2] = Unbound plasma concentration in human at 10 uM measured after 4 hrs by equilibrium dialysis method; type: ADME, cell-free
[3] = Cmax in rat at 1 mg/kg, po administered as cassette dose; type: ADME, organism-based; set-up: dose 1 mg/kg, route oral; conditions: in vivo
Rattus norvegicus [4] = experiment: Effect on prothrombin time in rat at 1 to 100 mg/kg, po measured after 2 hrs; type: functional, organism-based
Rattus norvegicus [5] = experiment: Anticoagulant activity in po dosed rat assessed as prolongation of activated partial thromboplastin time measured after 2 hrs; type: functional, organism-based

Sequence of Coagulation factor X (P00742 41-179 limits assumed): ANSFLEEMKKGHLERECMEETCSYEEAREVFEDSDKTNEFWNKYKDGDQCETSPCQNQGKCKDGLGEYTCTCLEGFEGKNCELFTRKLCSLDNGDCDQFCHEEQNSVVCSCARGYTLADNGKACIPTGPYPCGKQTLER
Sequence of Coagulation factor X (P00742 235-488 limits assumed): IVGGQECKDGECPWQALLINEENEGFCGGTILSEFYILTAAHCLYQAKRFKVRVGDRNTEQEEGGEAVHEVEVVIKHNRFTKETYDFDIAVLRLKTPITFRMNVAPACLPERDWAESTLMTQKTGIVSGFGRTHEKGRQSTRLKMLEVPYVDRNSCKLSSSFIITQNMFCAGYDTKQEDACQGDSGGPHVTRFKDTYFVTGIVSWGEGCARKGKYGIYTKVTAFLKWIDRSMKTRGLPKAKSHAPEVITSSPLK
Sequence of Coagulation factor IX (P00740 47-191 limits assumed): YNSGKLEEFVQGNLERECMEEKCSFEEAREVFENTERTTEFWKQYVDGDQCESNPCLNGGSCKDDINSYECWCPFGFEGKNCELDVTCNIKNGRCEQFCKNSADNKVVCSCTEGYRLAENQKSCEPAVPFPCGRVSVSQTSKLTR
Sequence of Coagulation factor IX (P00740 227-461 limits assumed): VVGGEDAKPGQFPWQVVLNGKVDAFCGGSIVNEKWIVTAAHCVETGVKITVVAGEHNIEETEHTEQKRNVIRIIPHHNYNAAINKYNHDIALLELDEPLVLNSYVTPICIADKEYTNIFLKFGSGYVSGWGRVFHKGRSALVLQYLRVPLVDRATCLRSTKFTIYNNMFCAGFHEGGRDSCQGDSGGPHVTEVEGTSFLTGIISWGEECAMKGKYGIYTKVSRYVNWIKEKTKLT

| Compound | IC50 (Coagulation factor X) | IC50 (Coagulation factor IX) | Papp at 5 h, 5 µM [1] | fraction unbound at 4 h, 10 µM [2] | Cmax [3] | 2aPTT (Plasma) | Activity (Rattus norvegicus [4]) | Activity (Rattus norvegicus [5]) |
| --- | --- | --- | --- | --- | --- | --- | --- | --- |
| Nc1noc2c(N3CCC(NC(=O)c4ccc(-n5cnnc5)cc4Cl)C3)cccc12 (racemic) | > 100000 nM | 98 nM |  |  |  |  |  |  |
| Nc1noc2c(N3CC[C@@H](NC(=O)c4ccc(-c5ncccn5)cc4Cl)C3)ncc(Cl)c12 | > 100000 nM | > 3000 nM |  |  |  |  |  |  |
| Nc1noc2c(N3CCC(NC(=O)c4ccc(-n5cnnc5)cc4Cl)C3)nccc12 (racemic) | > 100000 nM | 89 nM |  |  |  |  |  |  |
| O=C(NC[C@H]1CN(c2ccc(N3CCOCC3=O)cc2)C(=O)O1)c1ccc(Cl)s1 |  |  |  |  |  |  | Active | Active |
| Cc1ncn(-c2ccc(C(=O)N[C@@H]3CCN(c4ncc(Cl)c5c(N)noc45)C3)c(Cl)c2)n1 | > 100000 nM | 33 nM | 11.6 ×10⁻⁶ cm/s | 0.002 | 330 ng/mL | 113 µM |  |  |

More lines, main results first:

| IC50 (Coagulation factor X) | IC50 (Coagulation factor IX) | Papp at 5 h, 5 µM [1] | fraction unbound at 4 h, 10 µM [2] | Cmax [3] | Compound | 2aPTT (Plasma) | Activity (Rattus norvegicus [4]) | Activity (Rattus norvegicus [5]) |
| --- | --- | --- | --- | --- | --- | --- | --- | --- |
| 25000 nM | 13 nM | 3.1 ×10⁻⁶ cm/s | 0.008 |  | Nc1noc2c(N3CC[C@@H](NC(=O)c4ccc(-n5cnc6ncccc65)cc4Cl)C3)ncc(Cl)c12 | 28 µM |  |  |
| 26000 nM | 36 nM | 0.7 ×10⁻⁶ cm/s | 0.017 |  | Cn1cc(-c2ccc(C(=O)N[C@@H]3CCN(c4ncc(Cl)c5c(N)noc45)C3)c(Cl)c2)cnc1=O | 47 µM |  |  |
| 22000 nM | 62 nM |  |  |  | Cc1cc(N2CC[C@@H](NC(=O)c3ccc(-n4cnnc4)cc3Cl)C2)c2onc(N)c2c1Cl |  |  |  |
| 78000 nM | 31 nM | 0.7 ×10⁻⁶ cm/s | 0.012 | 120 ng/mL | Nc1noc2c(N3CC[C@@H](NC(=O)c4ccc(-n5cnnc5)cc4Cl)C3)ncc(Cl)c12 |  |  |  |
| 29000 nM | 47 nM |  |  |  | Nc1noc2c(N3CC[C@@H](NC(=O)c4ccc(-n5cnnc5)cc4Cl)C3)cc(Cl)c(Cl)c12 |  |  |  |
| 20000 nM | 18 nM | 6.5 ×10⁻⁶ cm/s | 0.004 | 510 ng/mL | Cn1cc(-c2ccc(C(=O)N[C@@H]3CCN(c4ncc(Cl)c5c(N)noc45)C3)c(Cl)c2)ccc1=O | 85 µM |  |  |
